In patent US20230391786A1, “cGAS INHIBITORS” (Eli Lilly and Company, priority 2022, published 2023):
Where a name gives a salt, the structure may show the parent alone.

Legend:
recombinant human cGAS = recombinant human cGAS (Homo sapiens (Human), UniProt Q8N884); experiment: In vitro inhibition assay of cGAS activity (cGAMP production, RapidFire mass spectrometry); format: biochemical; conditions: 10 nM recombinant human cGAS, 60 nM 75-bp dsDNA, ATP, GTP, room temperature 3 hours, read-out: IC50 (μM), In vitro inhibition assay for Compounds 95-348
Summary of the method: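 Full-length His6-tagged human cGAS (10 nM, E. coli-expressed) was incubated 3 h at room temperature with 60 nM 75-bp dsDNA, ATP, 50 μM GTP and compound at pH 7.5 with 5 mM MgCl2. cGAMP formation was measured by RapidFire mass spectrometry, and IC50 was taken from a 4-parameter logistic fit.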

[1] = test system: cGAS activity in THP1 cells (IFNb as marker); experiment: Cellular assay to measure cGAS activity (IFNb production in PMA-differentiated THP1 cells stimulated by RDG-Adenovirus-GFP); format: cell-based, human; conditions: Homo sapiens, THP-1, THP1 cells, PMA differentiated, RDG-Adenovirus-GFP 1000 MOI, IFNb AlphaLISA, overnight incubation; read-out: IC50 (μM), Cellular assay for Compounds 95-348
Summary of the method: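 PMA-differentiated THP1 cells were infected with RDG-Adenovirus-GFP at 1000 MOI for 4 h, then exposed overnight to test compounds. IFNb in the supernatant was quantified by AlphaLISA as a cGAS activity marker, and IC50 was fitted with a 4-parameter logistic equation.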

Sequence of recombinant human cGAS (Q8N884 whole entry): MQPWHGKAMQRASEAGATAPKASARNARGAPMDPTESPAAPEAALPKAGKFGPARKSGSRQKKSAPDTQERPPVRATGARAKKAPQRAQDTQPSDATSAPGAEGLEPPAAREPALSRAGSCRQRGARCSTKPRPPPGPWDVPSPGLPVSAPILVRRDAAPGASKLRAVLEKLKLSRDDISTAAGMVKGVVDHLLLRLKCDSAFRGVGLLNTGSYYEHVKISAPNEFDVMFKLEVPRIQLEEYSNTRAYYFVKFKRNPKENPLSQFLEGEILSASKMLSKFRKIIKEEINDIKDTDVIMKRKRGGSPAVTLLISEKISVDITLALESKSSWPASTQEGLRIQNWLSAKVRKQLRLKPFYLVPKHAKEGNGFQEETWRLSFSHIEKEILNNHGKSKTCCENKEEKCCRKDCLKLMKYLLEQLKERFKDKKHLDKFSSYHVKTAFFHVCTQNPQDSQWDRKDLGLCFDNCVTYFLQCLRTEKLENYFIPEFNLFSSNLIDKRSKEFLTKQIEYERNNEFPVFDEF

SMILES	IC50 (recombinant human cGAS) [µM]	IC50 [1] [µM]
CNNc1cc(Cl)c(Cl)c2[nH]cc(-c3cn[nH]c3)c12 [Example 215, 1-[6,7-Dichloro-3-(1H-pyrazol-4-yl)-1H-indol-4-yl]-2-methyl-hydrazine hydrochloride]	0.0864	2.59
OCCn1cc(-n2cc(-c3cn[nH]c3)c3ccc(Cl)c(F)c32)nn1 [Example 218, 2-[4-[6-Chloro-7-fluoro-3-(1H-pyrazol-4-yl)indol-1-yl]triazol-1-yl]ethanol]	0.0679	3.27
O=C(NCc1[nH]c2c(Cl)c(Cl)ccc2c1-c1cn[nH]c1)C1COC1 [Example 224, N-[[6,7-Dichloro-3-(1H-pyrazol-4-yl)-1H-indol-2-yl]methyl]oxetane-3-carboxamide]	0.0704	2.73
NC(=O)Cn1cc(-n2cc(-c3cn[nH]c3)c3ccc(Cl)cc32)nn1 [Example 227, 2-[4-[6-Chloro-3-(1H-pyrazol-4-yl)indol-1-yl]triazol-1-yl]acetamide]	0.0408	1.6
NCCn1cc(-n2cc(-c3cn[nH]c3)c3ccc(Cl)cc32)nn1 [Example 228, 2-[4-[6-Chloro-3-(1H-pyrazol-4-yl)indol-1-yl]triazol-1-yl] ethanamine formic acid salt]	0.0493	1.46
Cn1cc(-n2cc(-c3cn[nH]c3)c3ccc(Cl)cc32)nn1 [Example 230, 6-Chloro-1-(1-methyltriazol-4-yl)-3-(1H-pyrazol-4-yl)indole]	0.0693	2.02
CC(=S)Nc1cc(Cl)c(Cl)c2[nH]cc(-c3cn[nH]c3)c12 [Example 231, N-[6,7-Dichloro-3-(1H-pyrazol-4-yl)-1H-indol-4-yl]thioacetamide]	0.0724	1.01
CC(=O)N[C@H]1CCn2c1c(-c1cn[nH]c1)c1c(OCC#N)cc(Cl)c(Cl)c12 [Example 232, (S)—N-(5,6-Dichloro-8-(cyanomethoxy)-9-(1H-pyrazol-4-yl)-2,3-dihydro-1H-pyrrolo[1,2-a]indol-1-yl)acetamide]	0.00376	0.668
CCOc1cc(Cl)c(Cl)c2c1c(-c1cn[nH]c1)c1n2CC[C@H]1NC(C)=O [Example 235, (R)—N-(5,6-Dichloro-8-ethoxy-9-(1H-pyrazol-4-yl)-2,3-dihydro-1H-pyrrolo[1,2-a]indol-1-yl)acetamide]	0.019	2.05
CS(=O)(=O)NC1CCn2c1c(-c1cn[nH]c1)c1ccc(Cl)c(Cl)c12 (stereo not drawn) [Example 238, N-(5,6-Dichloro-9-(1H-pyrazol-4-yl)-2,3-dihydro-1H-pyrrolo[1,2-a]indol-1-yl)methanesulfonamide]	0.046	> 10
CCC(=O)NC1CCn2c1c(-c1cn[nH]c1)c1ccc(Cl)c(Cl)c12 (stereo not drawn) [Example 239, N-(5,6-Dichloro-9-(1H-pyrazol-4-yl)-2,3-dihydro-1H-pyrrolo[1,2-a]indol-1-yl)propionamide]	0.0613	> 10
CC(=O)N[C@H]1Cc2c(-c3cn[nH]c3)c3c(OCC#N)cc(Cl)c(Cl)c3n2C1 [Example 245, (S)—N-(5,6-Dichloro-8-(cyanomethoxy)-9-(1H-pyrazol-4-yl)-2,3-dihydro-1H-pyrrolo[1,2-a]indol-2-yl)acetamide]	0.0122	0.872
CS(=O)(=O)NC1Cc2c(-c3cn[nH]c3)c3ccc(Cl)c(Cl)c3n2C1 (stereo not drawn) [Example 246, N-(5,6-Dichloro-9-(1H-pyrazol-4-yl)-2,3-dihydro-1H-pyrrolo[1,2-a]indol-2-yl)methanesulfonamide]	0.0313	9.23
OCCCNc1cc(Cl)c(Cl)c2[nH]nc(-c3cn[nH]c3)c12 [Example 250, 3-[[6,7-Dichloro-3-(1H-pyrazol-4-yl)-1H-indazol-4-yl]amino]propan-1-ol]	0.0052	0.376
CCN1CCn2c(c(-c3cn[nH]c3)c3c(NC(=O)C(F)F)cc(Cl)c(Cl)c32)C1=O [Example 251, N-[6,7-Dichloro-2-ethyl-1-oxo-10-(1H-pyrazol-4-yl)-3,4-dihydropyrazino[1,2-a]indol-9-yl]-2,2-difluoro-acetamide]	0.0265	1.36
COCCN1CCn2c(c(-c3cn[nH]c3)c3c(NC(=O)C(F)F)cc(Cl)c(Cl)c32)C1=O [Example 252, N-[6,7-Dichloro-2-(2-methoxyethyl)-1-oxo-10-(1H-pyrazol-4-yl)-3,4-dihydropyrazino[1,2-a]indol-9-yl]-2,2-difluoro-acetamide]	0.033	0.726

The remaining compounds from weak to strong by IC50 (recombinant human cGAS), led by results:

IC50 (recombinant human cGAS) [µM]	IC50 [1] [µM]	SMILES
0.0927	> 10	CC(=O)Nc1cc(Cl)c(Cl)c2[nH]c(CNC(=O)CO)c(-c3cn[nH]c3)c12 [Example 222, N-[[4-Acetamido-6,7-dichloro-3-(1H-pyrazol-4-yl)-1H-indol-2-yl]methyl]-2-hydroxy-acetamide]
0.0812	3.2	O=C(NCc1[nH]c2c(Cl)c(Cl)ccc2c1-c1cn[nH]c1)C1(O)COC1 [Example 223, N-[[6,7-Dichloro-3-(1H-pyrazol-4-yl)-1H-indol-2-yl]methyl]-3-hydroxy-oxetane-3-carboxamide]
0.0806	1.13	CCOc1cc(Cl)c(Cl)c2c1c(-c1cn[nH]c1)c1n2CC[C@@H]1NC(C)=O [Example 233, (S)—N-(5,6-Dichloro-8-ethoxy-9-(1H-pyrazol-4-yl)-2,3-dihydro-1H-pyrrolo[1,2-a]indol-1-yl)acetamide]
0.0794	2.12	CNCC(=O)NCc1[nH]c2c(Cl)c(Cl)ccc2c1-c1cn[nH]c1 [Example 217, N-[[6,7-Dichloro-3-(1H-pyrazol-4-yl)-1H-indol-2-yl]methyl]-2-(methylamino)acetamide formic acid salt]
0.0686	0.885	NCCn1cc(-n2cc(-c3cn[nH]c3)c3ccc(Cl)c(Cl)c32)nn1 [Example 214, 2-[4-[6,7-Dichloro-3-(1H-pyrazol-4-yl)indol-1-yl]triazol-1-yl]ethanamine hydrochloride]
0.0642	> 10	COCCC(=O)NC1CCn2c1c(-c1cn[nH]c1)c1ccc(Cl)c(Cl)c12 (stereo not drawn) [Example 240, N-(5,6-Dichloro-9-(1H-pyrazol-4-yl)-2,3-dihydro-1H-pyrrolo[1,2-a]indol-1-yl)-3-methoxypropanamide]
0.0598	4.17	NCC(=O)NCc1[nH]c2c(Cl)c(Cl)ccc2c1-c1cn[nH]c1 [Example 216, 2-Amino-N-[[6,7-dichloro-3-(1H-pyrazol-4-yl)-1H-indol-2-yl]methyl]acetamide formic acid salt]
0.0563	2.27	Clc1ccc2c(-c3cn[nH]c3)cn(-c3c[nH]nn3)c2c1 [Example 226, 6-Chloro-3-(1H-pyrazol-4-yl)-1-(1H-triazol-4-yl)indole]
0.0348	0.35	O=C(Nc1cc(Cl)cc2[nH]cc(-c3cn[nH]c3)c12)C(F)F [Example 219, N-(6-Chloro-3-(1H-pyrazol-4-yl)-1H-indol-4-yl)-2,2-difluoroacetamide]
0.0331	> 10	CC(=O)NCC(=O)NC1CCn2c1c(-c1cn[nH]c1)c1ccc(Cl)c(Cl)c12 (stereo not drawn) [Example 236, 2-Acetamido-N-(5,6-dichloro-9-(1H-pyrazol-4-yl)-2,3-dihydro-1H-pyrrolo[1,2-a]indol-1-yl)acetamide]
0.0306	2.32	N#CCOc1cc(Cl)c(Cl)c2[nH]nc(-c3cn[nH]c3)c12 [Example 249, 2-[[6,7-Dichloro-3-(1H-pyrazol-4-yl)-1H-indazol-4-yl]oxy]acetonitrile]
0.0249	1.72	CC(=O)N[C@@H]1CCn2c1c(-c1cn[nH]c1)c1c(OCC#N)cc(Cl)c(Cl)c12 [Example 234, (R)—N-(5,6-Dichloro-8-(cyanomethoxy)-9-(1H-pyrazol-4-yl)-2,3-dihydro-1H-pyrrolo[1,2-a]indol-1-yl)acetamide]
0.0238	> 10	O=C(CO)NCc1[nH]c2c(Cl)c(Cl)cc(NC(=O)CO)c2c1-c1cn[nH]c1 [Example 221, N-[[6,7-Dichloro-4-[(2-hydroxyacetyl)amino]-3-(1H-pyrazol-4-yl)-1H-indol-2-yl]methyl]-2-hydroxy-acetamide]
0.015	1.74	O=C(CO)NC1CCn2c1c(-c1cn[nH]c1)c1ccc(Cl)c(Cl)c12 (stereo not drawn) [Example 237, N-(5,6-Dichloro-9-(1H-pyrazol-4-yl)-2,3-dihydro-1H-pyrrolo[1,2-a]indol-1-yl)-2-hydroxyacetamide]
0.014	0.509	CC(=O)N1CCn2c(c(-c3cn[nH]c3)c3c(NCCCO)cc(Cl)c(Cl)c32)C1 [Example 253, 1-[6,7-Dichloro-9-(3-hydroxypropylamino)-10-(1H-pyrazol-4-yl)-3,4-dihydro-1H-pyrazino[1,2-a]indol-2-yl]ethanone]
0.0121	0.23	O=C(Nc1cc(Cl)c(Cl)c2[nH]c(CCO)c(-c3cn[nH]c3)c12)C(F)F [Example 225, N-[6,7-Dichloro-2-(2-hydroxyethyl)-3-(1H-pyrazol-4-yl)-1H-indol-4-yl]-2,2-difluoro-acetamide]
0.0099	0.531	CC(=O)N[C@H]1Cc2c(-c3cn[nH]c3)c3c(NC(=O)C(F)F)cc(Cl)c(Cl)c3n2C1 [Example 244, (S)—N-(2-Acetamido-5,6-dichloro-9-(1H-pyrazol-4-yl)-2,3-dihydro-1H-pyrrolo[1,2-a]indol-8-yl)-2,2-difluoroacetamide]
